Test results reported in patent US5216165A, “N-substituted aminoquinolines as analgesic agents” (American Home Products Corporation, priority 1992, dated 1993).
Structures can show the parent of a compound that is named as a salt. Where two headings read alike, the source gives them in different places.

Columns and labels:
[1] = system: bradykinin-induced writhing response; experiment: inhibition of the writhing response induced in mice by exogenous administration of bradykinin; assay type: in vivo, mice (male CD-1)
BK2 receptor = target: T1, BK2 receptor (Cavia porcellus, UniProt O70526); experiment: competition with tritiated bradykinin (3H-BK) for BK2 receptor sites in guinea pig ileum; assay type: binding; conditions: for Activity (reference compounds, 3H-BK binding): screened at 100 μM
T1 construct: The distal portion of the ileum is removed and placed in ice cold homogenization buffer; from tissue; host or cells: distal ileum of adult male Hartley strain guinea pig, washed 50,000×g pellet of homogenate
T1 sequence (O70526 1-372): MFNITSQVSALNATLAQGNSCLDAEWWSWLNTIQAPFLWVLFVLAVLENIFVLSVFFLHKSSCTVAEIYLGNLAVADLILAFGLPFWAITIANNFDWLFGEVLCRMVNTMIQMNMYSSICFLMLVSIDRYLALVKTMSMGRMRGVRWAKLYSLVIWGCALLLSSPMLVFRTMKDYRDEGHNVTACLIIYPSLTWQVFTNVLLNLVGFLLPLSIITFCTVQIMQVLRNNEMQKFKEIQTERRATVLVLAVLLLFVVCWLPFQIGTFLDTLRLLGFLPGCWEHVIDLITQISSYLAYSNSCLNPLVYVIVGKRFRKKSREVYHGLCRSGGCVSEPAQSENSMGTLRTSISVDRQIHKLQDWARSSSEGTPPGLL
Description: This assay is employed to identify compounds which compete specifically with tritiated bradykinin (^3 H-BK) for BK2 receptor sites in guinea pig ileum.
The assay is carried out as follows:
A 350-500 g adult male Hartley strain guinea pig is euthanized by stunning followed by decapitation. The distal portion of the ileum is removed and placed in ice cold homogenization buffer [25 mM N-tris(hydroxymethyl)methyl-2-aminoethane sulfonic acid (TES) 1 mM 1,10-phenanthroline, adjusted to pH 6.8 with NH4 OH]. The contents of the ileal lumen are rinsed out with cold homogenization buffer. The tissue is cut into small pieces and homogenized in 20 volumes of homogenization buffer using a Brinkmann Polytron homogenizer equipped with a PTA 10 TS generator. The tissue is homogenized for 10 seconds, three times, at setting 5.
The homogenate is filtered through a surgical gauze sponge and centrifuged at 50,000×g for 20 minutes at 4° C. The supernatant fluid is discarded and the homogenization and centrifugation procedure is repeated. After discarding the supernatant fluid, the final pellet is resuspended in 40 volumes of assay buffer [25 mM TES, pH=6.8, 1 mM 1,10-phenanthroline, 1 mM dithiothreitol, 2 μM captopril, 140 μg/ml bacitracin and 0.1% bovine serum albumin (BSA)]. The homogenate is filtered once more through a surgical gauze sponge and kept on ice until use.
The assay is performed using only polypropylene pipet tips and polypropylene test tubes. Each tube receives 100 μl of 800 pM ^3 H-BK, 100 μl of the test compound solution or vehicle (TES assay buffer), and 100 μl of 25 mg/ml tissue homogenate in a total volume of 1 ml. The final concentration of ^3 H-BK is 80 pM. The final tissue concentration is 2.5 mg/ml. Compounds are screened at 100 μM. Nonspecific binding is determined in the presence of 1 μM unlabeled bradykinin. All determinations are made in triplicate. Three 100 μl aliquots of the 800 pM 3 H-BK working solution are added directly to scintillation vials to determine the total added radioactivity.
The tubes are incubated for 90 minutes at 25° C. while being gently agitated on an orbital shaker. Bound ligand is separated from free ligand, using Whatman GF/B glass fiber filters (pretreated with 0.1% aqueous polyethyleneimine made neutral with HCl). A Brandel receptor binding harvester is used. Assay tubes and glass fiber filters are rinsed three times with 3 ml of cold physiological saline.
The filter discs are transferred to 20 ml scintillation vials. Ten ml of aqueous sample LSC cocktail (Aquassure, New England Nuclear) is added to each vial. After capping, the vials are agitated for 5 minutes on an orbital shaker. The samples are counted for ten minutes in a refrigerated liquid scintillation counter.
The following values are obtained:
Bx Total binding in the presence of the test compound
C Control specific binding. C=Bt -Bns
D Specific binding in the presence of the test compound. D=Bx -Bns
Percent of control: D/C×100
Percent Inhibition: (1-D/C)×100
After calculation of Percent of Control for each dilution, the values are analyzed and the IC50 with its 95% confidence limits is determined on a Hewlett Packard 9816 computer using the program "PS-NONLIN" (generalizednon-linear regression with inverse prediction and graphics).

[2] = guinea pig ileum homogenate, 80 pM 3H-BK, 90 min, 25° C., pH 6.8, read-out: IC50
[3] = 30 mg/kg i.p., bradykinin 0.5 mg/kg i.p. after PGE2
[4] = bradykinin 0.5 mg/kg i.p. after PGE2
[5] = guinea pig ileum homogenate, 80 pM 3H-BK

CC(=O)Nc1ccc(O)cc1 [Acetaminophen, reference compound]
% inhibition of writhing ([1]; at 300 mg/kg p.o. (reference compound acetaminophen)): 20%

CCCCN1CCC(NCc2ccc(Nc3ccnc4cc(Cl)ccc34)cc2)CC1 [Example 1, N-[4-[[(1-Butyl-4-piperidinyl)amino]methyl]phenyl]-7-chloro-4-quinolinamine]
IC50 (BK2 receptor; [2]): 8.4 µM
% Inhibition at 30 mg/kg i.p. [1, 3]: 13.1%
% Inhibition at 200 mg/kg p.o. [1, 4]: 7.1%

CCCCN1CCC(N(Cc2ccc(Nc3ccnc4cc(Cl)ccc34)cc2)C(C)=O)CC1 [Example 2, N-(1-Butyl-4-piperidinyl)-N-[[4-[(7-chloro-4-quinolinyl)amino]phenyl]methyl]acetamide]
IC50 (BK2 receptor; [2]): 6 µM
% Inhibition at 30 mg/kg i.p. [1, 3]: 51.0%
% Inhibition at 200 mg/kg p.o. [1, 4]: 26.0%

CCCCN1CCC(N(Cc2ccc(Nc3ccnc4ccccc34)cc2)C(C)=O)CC1 [Example 3, N-(1-Butyl-4-piperidinyl)-N-[[4-(4-quinolinylamino)phenyl]methyl]acetamide]
IC50 (BK2 receptor; [2]): 10.8 µM

CCCCN1CCC(N(Cc2ccc(Nc3ccnc4cc(Cl)ccc34)cc2)C(=O)c2ccccc2)CC1 [Example 4, N-(1-Butyl-4-piperidinyl)-N-[[4-[7-chloro-4-quinolinyl)amino]phenyl]methyl]benzamide, hydrochloride]
IC50 (BK2 receptor; [2]): 2 µM
% Inhibition at 30 mg/kg i.p. [1, 3]: 40.0%

CCCCN1CCC(N(Cc2ccc(Nc3ccnc4cc(Cl)ccc34)cc2)C(=O)CCc2ccccc2)CC1.Cl [Example 5, N-(1-Butyl-4-piperidinyl)-N-[[4-[(7-chloro-4-quinolinyl)amino]phenyl]methyl]benzenepropanamide, hydrochloride]
IC50 (BK2 receptor; [2]): 1.6 µM
% Inhibition at 30 mg/kg i.p. [1, 3]: 85.0%
% Inhibition at 200 mg/kg p.o. [1, 4]: 27.0%

CCCCN1CCC(N(Cc2ccc(Nc3ccnc4cc(Cl)ccc34)cc2)C(=O)C(F)(F)C(F)(F)C(F)(F)F)CC1.Cl [Example 6, N-(1-Butyl-4-piperidinyl)-N-[[4-[(7-chloro-4-quinolinyl)amino]phenyl]-methyl]-2,2,3,3,4,4,4-heptafluorobutanamide, hydrochloride]
IC50 (BK2 receptor): 4.3 µM
% Inhibition at 30 mg/kg i.p. ([1]; mouse, in vivo): 68.0%

CCCCN1CCC(N(Cc2ccc(Nc3ccnc4cc(Cl)ccc34)cc2)C(=O)C(F)(F)F)CC1.Cl [Example 7, N-(1-butyl-4-piperidinyl)-N-[[4-[(7-chloro-4-quinolinyl)amino]-phenyl]methyl]-2,2,2-trifluoroacetamide, hydrochloride]
IC50 (BK2 receptor; [2]): 2.4 µM
% Inhibition at 30 mg/kg i.p. [1, 3]: 44.0%

CCCCN1CCC(N(Cc2ccc(Nc3ccnc4cc(Cl)ccc34)cc2)C(=O)CCC)CC1.Cl [Example 8, N-(1-Butyl-4-piperidinyl)-N-[[4-[(7-chloro-4-quinolinyl)-amino]phenyl]methyl]butanamide, hydrochloride]
IC50 (BK2 receptor; [2]): 1.2 µM
% Inhibition at 30 mg/kg i.p. [1, 3]: 80.0%
% Inhibition at 200 mg/kg p.o. [1, 4]: 58.0%

CCN(CC)C(=O)c1ccc(CN2CCC(NCc3ccc(Nc4ccnc5cc(Cl)ccc45)cc3)CC2)cc1.Cl [Example 9, 4-[[4-[[[4-[(7-Chloro-4-quinolinyl)amino]phenyl]methyl]amino]-1-piperidinyl]methyl]-N,N-diethylbenzamide, hydrochloride]
IC50 (BK2 receptor; [2]): 0.77 µM
% Inhibition at 30 mg/kg i.p. [1, 3]: 0.0%

Clc1ccc2c(Nc3ccc(CNC4CCN(Cc5ccccc5)CC4)cc3)ccnc2c1 [Example 10, 7-Chloro-N-[4-[[[1-(phenylmethyl)-4-piperidinyl]amino]methyl]phenyl]-4-quinolinamine]
IC50 (BK2 receptor; [2]): 4 µM
% Inhibition at 30 mg/kg i.p. [1, 3]: 2.5%

CCCC(=O)N(Cc1ccc(Nc2ccnc3cc(Cl)ccc23)cc1)C1CCN(Cc2ccc(C(=O)N(CC)CC)cc2)CC1 [Example 12, 4-[[4-[[[4-[(7-Chloro-4-quinolinyl)amino]phenyl]methyl]-(1-oxobutyl)amino]-1-piperidinyl]methyl]-N,N-diethylbenzamide, hydrochloride, 0.76 hydrate]
IC50 (BK2 receptor; [2]): 2.7 µM
% Inhibition at 30 mg/kg i.p. [1, 3]: 5%

CCN(CC)C(=O)CCCCCN1CCC(NCc2ccc(Nc3ccnc4cc(Cl)ccc34)cc2)CC1 [Example 13, 4-[[[4-[(7-Chloro-4-quinolinyl)amino]phenyl]methyl]amino]-N,N-diethyl-1-piperidinehexanamide, tris(trifluoroacetate), 0.42 hydrate]
IC50 (BK2 receptor; [2]): 3.9 µM
% Inhibition at 30 mg/kg i.p. [1, 3]: 43%

CCCC(=O)N(Cc1ccc(Nc2ccnc3cc(Cl)ccc23)cc1)C1CCN(CCCCCC(=O)N(CC)CC)CC1 [Example 14, 4-[[[4-[(7-Chloro-4-quinolinyl)amino]phenyl]methyl](1-oxobutyl)amino]-N,N-diethyl-1-piperidinehexanamide, 0.56 hydrate]
IC50 (BK2 receptor; [2]): 5.5 µM
% Inhibition at 30 mg/kg i.p. [1, 3]: 81%
% Inhibition at 200 mg/kg p.o. [1, 4]: 46%

O=C(c1ccccc1)N1CCC(NCc2ccc(Nc3ccnc4cc(Cl)ccc34)cc2)CC1 [Example 15, 1-Benzoyl-N-[[[4-[(7-chloro-4-quinolinyl)amino]phenyl]methyl]-4-piperidinanaminetrifluoroacetate (1:2), 1.03 hydrate]
IC50 (BK2 receptor; [2]): 13.8 µM
% Inhibition at 30 mg/kg i.p. [1, 3]: 43%

CCCCCCCCCCCC(=O)N(Cc1ccc(Nc2ccnc3cc(Cl)ccc23)cc1)C1CCN(CCCCCC(=O)N(CC)CC)CC1.Cl [Example 16, 4-[[[4-[(7-Chloro-4-quinolinyl)amino]phenyl]methyl](1-oxododecyl)-amino]-N,N-diethyl-1-piperidinehexanamide, hydrochloride]
IC50 (BK2 receptor; [2]): 3.8 µM
% Inhibition at 30 mg/kg i.p. [1, 3]: 30%

CC(C)Cc1ccc(C(C)C(=O)O)cc1 (centres unmarked) [Ibuprofen, reference compound]
% inhibition of writhing ([1]; at 200 mg/kg p.o. (reference compound ibuprofen)): 43%

CC(C(=O)O)c1cccc(C(=O)c2ccccc2)c1 (centres unmarked) [Ketoprofen, reference compound]
% inhibition of writhing ([1]; mouse, in vivo, po, 100 mg/kg): 52%

CN1CC[C@]23c4c5ccc(O)c4O[C@H]2[C@@H](O)C=C[C@H]3[C@H]1C5 [Morphine, reference compound]
ED50 ([1]; Mus musculus, po): 4.5 mg/kg

Des Arg^9 --BK: BK1 Agonist (RPPGFSPF; Bradykinin; UniProt P01042 381-388, looked up, fragment) [reference compound]
Activity (reference compounds, 3H-BK binding) (BK2 receptor; [5]): No Activity

DesArg^9 --Leu^8 BK: BK1 Antagonist [reference compound]
Activity (reference compounds, 3H-BK binding) (BK2 receptor; [5]): No Activity

Thi^5,8 --DPhe^7 --BK [reference compound]
IC50 (BK2 receptor; guinea pig ileum homogenate, 80 pM 3H-BK, 90 min, 25° C., pH 6.8, read-out: IC50 (reference compounds)): 0.069 µM
